Experiments:
[1] = test system: steroid 5α-reductase enzyme; conditions: reported in literature (ref 18); cited from earlier work
[2] = DPPH antioxidant screen (radical scavenging capacity)
Protocol: The antioxidant assay was based on the DPPH assay. DPPH is a radical and when a compound with radical scavenging properties reacts with DPPH, the purple colour disappears and a yellow colour is observed. The decolourisation of a purple colour to a yellow colour is measured by a chromameter. The intensity of the yellow colour gives an indication of antioxidant activity. […] The antioxidant activity was expressed as percentage radical scavenging capacity (RSC). […] This evaluation was carried out at the CSIR, Biosciences, Bioprospecting Platform. The 1,1-diphenyl-2-picrylhydrazyl (DPPH) assay was used to investigate the scavenging properties of extracts and pure compounds. […] This is quantified by the decrease of absorbance at wavelength 515 nm in the spectrophotometer. DPPH(purple)+([…](yellow)+(A·)n^26 Since this was a colorimetric test, the appearance of the yellow colour was measured using a chromameter. The final appearance of a more intense yellow colour was used as a good indication of a radical scavenging ability of the extract or compound and this is directly proportional to its antioxidant activity. The antioxidant activity was directly related to the total amount of phenolics and flavonoids present in that particular extract. This method was sensitive enough to indicate and monitor the presence of phenolic-type compounds. […] Spots with good radical scavenging properties turned yellow and the intensity was measured by a chromameter^5. […] The activity of the compound or extract was measured against the reference compound, epigallocatechin gallate.

[3] = molecular target: steroid 5α-reductase enzyme (Rattus norvegicus (Rat), UniProt P24008); assay: In vitro steroid 5α-reductase assay (testosterone EIA); type: biochemical, Wistar rats; conditions: for IC50: reference compound data
Sequence of steroid 5α-reductase enzyme (Rattus norvegicus (Rat), UniProt P24008) (P24008 whole entry): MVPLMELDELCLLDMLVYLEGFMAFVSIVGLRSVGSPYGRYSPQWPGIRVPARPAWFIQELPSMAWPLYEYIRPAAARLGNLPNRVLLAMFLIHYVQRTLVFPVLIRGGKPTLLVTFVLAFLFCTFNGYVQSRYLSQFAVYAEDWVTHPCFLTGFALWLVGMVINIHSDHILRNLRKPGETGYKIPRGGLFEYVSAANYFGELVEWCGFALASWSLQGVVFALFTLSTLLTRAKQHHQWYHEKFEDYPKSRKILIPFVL
Protocol: In vitro biological assays of the extracts, compounds and mixtures of compounds were undertaken to determine their inhibition of the enzyme 5α-reductase. The efficacy of each isolated compound as well as the crude spray-dried extract was expressed as percentage inhibitory activity and these compounds were tested at different concentrations.
The inhibitory effect of the crude extract, the isolated compounds and a mixture of the compounds on the steroid 5α-reductase was investigated and the results are given in Table 2.
This work was performed at the MDS Pharma Services, Pharmacology Laboratories, Taiwan. The assay was an in vitro evaluation of the ability of an extract or a pure compound to inhibit the steroid 5α-reductase enzyme from metabolizing testosterone into dihydrotestosterone. This is an enzyme-immunoassay (EIA) for quantitative determination of testosterone in human serum or plasma. The significance of this type of inhibition is that it can lead to eradication of benign prostatic hyperplasia (BPH). Two distinct isozymes are found in mice, rats, monkeys and humans: type 1 and II. Each of these isozymes is differentially expressed in tissues and developmental stages. In human, type 1 steroid 5α-reductase is predominant in the sebaceous glands of most regions of skin, including scalp and liver and is responsible for approximately one third of circulating DHT. Inhibitors of steroid 5α-reductase may be of benefit in the treatment of androgenetic alopecia. This is a specific binding assay whereby the biochemical assay results were expressed as percentage inhibition. Finasteride was used as a reference compound in all experiments.
The method employed was adapted from the scientific literature to maximize reliability and reproducibility^25. The steroid 5α-reductase enzyme was isolated from the liver of Wistar rats. The test compound was incubated with 20 μg/mL of steroid 5α-reductase preparation which contains 1 μM testosterone and 50 μM NADPH in DTT buffer, pH 6.5 for 30 minutes at 37° C. The reaction was stopped by addition of 1N HCl and neutralized by 1N NaOH and testosterone was quantified using a testosterone EIA Kit. Compounds were screened at 10 μM.

[4] = test system: 5α-reductase; conditions: men with smaller prostates, background; cited from earlier work

Q: Which “effect against the steroid 5α-reductase enzyme in words” value [1] does the source give for `O=C(O)c1cc(O)c(O)c(O)c1` [Compound (1), 3,4,5-Trihydroxybenzoic acid] here?
A: ineffective

Q: For `COC(=O)c1cc(O)c(O)c(O)c1` [Compound (2), 3,4,5-Trihydroxybenzoic acid methyl ester], which “effect against the steroid 5α-reductase enzyme in words” value [1] is on record?
A: ineffective

Q: With `O=c1c(O)c(-c2ccc(O)c(OC3OC(CO)C(O)C(O)C3O)c2)oc2cc(O)cc(O)c12` (centres unmarked) [Compound (3), 3,5,7-Trihydroxy-2-[4-hydroxy-3-(3,4,5-trihydroxy-6-hydroxymethyltetrahydropyran-2-yloxy)-phenyl]-chromen-4-one] as the compound, how does the “% RSC” value ([2]; 6.25 ppm) read?
A: 41%

Q: What about the “% RSC” value ([2]; 12.5 ppm) of the same compound?
A: 77%

Q: And the “% RSC” value ([2]; 25 ppm)?
A: 95%

Q: And the “% RSC” value ([2]; 50 ppm)?
A: 95%

Q: What about the “% RSC” value ([2]; 100 ppm) of the same compound?
A: 95%

Q: And the inhibition at 1 µM ([3]; test concentration 1 μM)?
A: -9%

Q: For `O=C(OC1Cc2c(O)cc(O)cc2OC1c1cc(O)cc(O)c1)c1cc(O)c(O)c(O)c1` (centres unmarked) [Compound (4), 3,4,5-Trihydroxybenzoic acid 2-(3,5-dihydroxy-phenyl)-5,7-dihydroxy-chroman-3-yl ester], which inhibition at 1 µM ([3]; test concentration 1 μM) is on record?
A: -2%

Q: For `O=C1c2c(O)cc(O)cc2O[C@H](c2ccc(O)c(O[C@@H]3O[C@H](CO)[C@@H](O)[C@H](O)[C@H]3O)c2)[C@H]1O` [Compound (5), (2R,3R)-,2-[3-(β-D-glucopyranosyloxy)-4-hydroxy-phenyl]-2,3-dihydro-3,5,7-trihydroxy-,4H-1-benzo-pyran-4-one], which “% RSC” value ([2]; 6.25 ppm) is on record?
A: 10%

Q: And the “% RSC” value ([2]; 12.5 ppm)?
A: 8%

Q: And the “% RSC” value ([2]; 25 ppm)?
A: 10%

Q: And the “% RSC” value ([2]; 50 ppm)?
A: 13%

Q: What about the “% RSC” value ([2]; 100 ppm) of the same compound?
A: 21%

Q: What about the “% inhibition” value ([3]; test concentration 1 μM) of the same compound?
A: 3%

Q: With `O=C(O[C@@H]1Cc2c(O)cc(O)cc2O[C@@H]1c1cc(O)c(O)c(O)c1)c1cc(O)c(O)c(O)c1` [Epigallocatechin gallate, reference compound] as the compound, how does the “% RSC” value ([2]; 0.01 ppm) read?
A: 8%

Q: What about the “% RSC” value ([2]; 0.1 ppm) of the same compound?
A: 8%

Q: What about the “% RSC” value ([2]; 1 ppm) of the same compound?
A: 61%

Q: What about the “% RSC” value ([2]; 10 ppm) of the same compound?
A: 95%

Q: What about the “% RSC” value ([2]; 100 ppm) of the same compound?
A: 95%

Q: What does the source list for `CC(C)(C)NC(=O)[C@H]1CC[C@H]2[C@@H]3CC[C@H]4NC(=O)C=C[C@]4(C)[C@H]3CC[C@]12C` [Finasteride]?
A: reduction in erection rate [4]: up to 8%; reduction in semen volume [4]: 4%; reduction in sex drive [4]: 6%; IC50 [3]: 0.025 µM; inhibition at 0.025 µM ([3]; test concentration 0.025 μM): 50%

Q: With `CCCCC/C=C\C/C=C\C/C=C\CCCCC(=O)O` [γ-Linolenic acid, reference compound] as the compound, how does the IC50 [3] read?
A: 14 µM
